Patent US4201781A, “Substituted 7[s-oxopyrido[2,3-d]pyrimidine carboxamido acetamido]cephalosporins” (Dainippon Pharmaceutical Co., Ltd., priority 1977, dated 1980)
Read-outs that look alike come from different tables or passages of the source.

Experiments:
Escherichia coli P-5101 [1] = experiment: In vivo efficacy against systemic infection in mice; set-up: species or system male mice (ddY); settings: P5101, sc, 168 h, read-out: ED50 (median effective dose)
Procedure: (§1) Compounds 1,2, A and B were each dissolved in deionized water to prepare injectable solutions having various concentrations.
Each of the injectable solutions was administered to mice infected with each of the bacteria described below under the conditions described below, and the median effective doses (ED50) obtained are shown in Table II.
(§2) male mice (ddY) weighing about 20 g
(2) Escherichia coli P-5101; Intraperitoneal infection with 50 to 100 LD50 (about 9×10^6 cells/mouse) of a bacterial suspension in trypto-soy broth with 4% mucin.
twice, about 5 minutes and 6 hours after infection.
(§3) Note; The numerals in the table show ED50 (mg/kg). ED50 values
(§4) were calculated in accordance with the BehrensKaerber method (Arch. Exp.

[2] = system: Pseudomonas aeruginosa No. 12; experiment: as above; set-up: species or system male mice (ddY); settings: 168 h, read-out: ED50 (median effective dose)
Procedure: as §1
(§5) Each of the injectable solutions was administered to mice infected with each of the bacteria described below under the conditions described below, and the median effective doses (ED50) obtained are shown in Table II. […]
as §2
(3) Pseudomonas aeruginosa No. 12; Intraperitoneal infection with 50 to 100 LD50 (about 5×10^3 cells/mouse) of a bacterial suspension in trypto-soy broth with 4% mucin. twice, about 5 minutes and 6 hours after infection. […]
as §3, §4

[3] = system: Corynebacterium pyrogenes C-21; experiment: In vitro antibacterial activity (MIC); assay type: cell-based; settings: Corynebacterium, C21, read-out: minimum inhibitory concentration (MIC)
Text: (§6) The numerals in the table show minimum inhibitory concentrations (MIC)

[4] = system: Enterobacter cloacae P-2540; experiment: In vitro antibacterial activity (MIC); assay type: cell-based; settings: Enterobacter cloacae, P2540, read-out: minimum inhibitory concentration (MIC)
Text: as §6

Proteus mirabilis P-2381 = experiment: In vitro antibacterial activity (MIC); assay type: cell-based; settings: Proteus mirabilis, P2381, read-out: minimum inhibitory concentration (MIC)
Text: as §6

Escherichia coli P-5101 [5] = experiment: In vitro antibacterial activity (MIC); assay type: cell-based; settings: Escherichia coli, P5101, read-out: minimum inhibitory concentration (MIC)
Text: as §6

[6] = system: Salmonella typhimurium S-9; experiment: In vitro antibacterial activity (MIC); assay type: cell-based; settings: Salmonella enterica, TYPHIMURIUM, read-out: minimum inhibitory concentration (MIC)
Text: as §6

[7] = system: Salmonella enteritidis No. 1891; experiment: In vitro antibacterial activity (MIC); assay type: cell-based; settings: Salmonella enterica, ENTERITIDIS, read-out: minimum inhibitory concentration (MIC)
Text: as §6

[8] = system: Pseudomonas aeruginosa Tsuchijima; experiment: In vitro antibacterial activity (MIC); assay type: cell-based; settings: Pseudomonas aeruginosa, read-out: minimum inhibitory concentration (MIC)
Text: as §6

[9] = system: Streptococcus pyrogenes 65A; experiment: In vitro antibacterial activity (MIC); assay type: cell-based; settings: Streptococcus, 65A, read-out: minimum inhibitory concentration (MIC)
Text: as §6

[10] = system: Staphylococcus aureus 209P JC-1; experiment: In vitro antibacterial activity (MIC); assay type: cell-based; settings: Staphylococcus aureus, 209P, read-out: minimum inhibitory concentration (MIC)
Text: as §6

[11] = system: Pseudomonas aeruginosa No. 12; experiment: In vitro antibacterial activity (MIC); assay type: cell-based; settings: Pseudomonas aeruginosa, NO.12, read-out: minimum inhibitory concentration (MIC)
Text: as §6

[12] = system: Staphylococcus aureus No. 50774; experiment: In vitro antibacterial activity (MIC); assay type: cell-based; settings: Staphylococcus aureus, NO.50774, read-out: minimum inhibitory concentration (MIC)
Text: as §6

[13] = system: Serratia marcescens IFO 3736; experiment: In vitro antibacterial activity (MIC); assay type: cell-based; settings: Serratia marcescens, IFO3736, read-out: minimum inhibitory concentration (MIC)
Text: as §6

[14] = system: Escherichia coli NIHJ JC-2; experiment: In vitro antibacterial activity (MIC); assay type: cell-based; settings: Escherichia coli, NIHJJC2, read-out: minimum inhibitory concentration (MIC)
Text: as §6

Proteus morganii Kono = experiment: In vitro antibacterial activity (MIC); assay type: cell-based; settings: Morganella morganii, read-out: minimum inhibitory concentration (MIC)
Text: as §6

[15] = system: Klebsiella pneumoniae No. 13; experiment: In vitro antibacterial activity (MIC); assay type: cell-based; settings: Klebsiella pneumoniae, NO.13, read-out: minimum inhibitory concentration (MIC)
Text: as §6

[16] = system: Shigella flexneri 4a P-330; experiment: In vitro antibacterial activity (MIC); assay type: cell-based; settings: Shigella flexneri, 4AP330, read-out: minimum inhibitory concentration (MIC)
Text: as §6
(§7) *Clinically isolated Cephalexinresistant strain.

Shigella flexneri 2a = experiment: In vitro antibacterial activity (MIC); assay type: cell-based; settings: Shigella flexneri, 2A, read-out: minimum inhibitory concentration (MIC)
Text: as §6, §7

Escherichia coli P-140a = experiment: In vitro antibacterial activity (MIC); assay type: cell-based; settings: Escherichia coli, read-out: minimum inhibitory concentration (MIC)
Text: as §6, §7

[17] = system: Gram-negative and Gram-positive bacteria; experiment: Antibacterial activity (general statement)
Solubility in water = assay type: physicochemical
Procedure: |Solubility in deionized water at 25° C.

[18] = system: Staphylococcus aureus No. 50774; experiment: In vivo efficacy against systemic infection in mice; set-up: species or system male mice (ddY); settings: NO.50774, sc, 336 h, read-out: ED50 (median effective dose)
Procedure: as §1, §5, §2
(1) Staphylococcus aureus No. 50774; Intravenous infection with 50 to 100 LD50 (about 5×10^8 cells/mouse) of a bacterial suspension in saline. twice, about 5 minutes and 6 hours after infection. […]
as §3, §4

Acute toxicity in mice = settings: mouse, in vivo, ip; read-out: LD50 (median lethal dose)
Procedure: Injectable solutions containing compounds 1, 2 and compound A in various concentrations were administered to male mice (ddY) (4 to 8 in each group) in a dose of 0.1 ml per 10 g of body weight. The number of dead mice was counted after a lapse of 7 days, and the value of median lethal dose (LD50, mg/kg) was calculated.
Note: The LD50 values were calculated in accordance with the […]

Work on `Cn1nnnc1SCC1=C(C(=O)[O-])N2C(=O)C(NC(=O)[C@H](NC(=O)c3c[nH]c4nc(N5CCNCC5)ncc4c3=O)c3ccc(O)cc3)[C@H]2SC1.[Na+]` (some centres unmarked) yielded an ED50 (Escherichia coli P-5101 [1]) of about 0.4 mg/kg, an ED50 ([2]; NO.12, po) of over 100 mg/kg and an ED50 ([2]; NO.12, sc) of 4.8 mg/kg. It also gave an MIC [3] of 6.25 µg/mL, an MIC [4] of 3.13 µg/mL and an MIC (Proteus mirabilis P-2381) of 12.5 µg/mL. It also gave an MIC (Escherichia coli P-5101 [5]) of 0.78 µg/mL, an MIC [6] of 0.78 µg/mL and an MIC [7] of 0.78 µg/mL. It also gave an MIC [8] of 3.13 µg/mL, an MIC [9] of 0.2 µg/mL and an MIC [10] of 3.13 µg/mL. It also gave an MIC [11] of 6.25 µg/mL, an MIC [12] of 6.25 µg/mL and an MIC [13] of 6.25 µg/mL. It also gave an MIC [14] of 1.56 µg/mL, an MIC (Proteus morganii Kono) of 25 µg/mL and an MIC [15] of 0.78 µg/mL. For the same compound, the MIC [16] was 12.5 µg/mL, the MIC (Shigella flexneri 2a) was 0.78 µg/mL and the MIC (Escherichia coli P-140a) was 1.56 µg/mL. For the same compound, the “antibacterial activity (in words)” value [17] was “superior antibacterial activity as the compound of the present invention”, the solubility (Solubility in water; deionized water at 25° C.) was about 500 µg/mL and the “Solubility in water (in words)” value (Solubility in water; water / deionized water / aqueous medium) was “extremely low solubility in water”. For the same compound, the ED50 [18] was about 7.8 mg/kg and the LD50 at 168 h (Acute toxicity in mice) was about 1500 mg/kg.
